Experiments:
[1] = system: X-Aptamer 5 (DNA, aptamer, dU with phenol (tyrosine) at C5 (Y) at 23; dU with indole (tryptophan) at C5 (W) at 37 and 38) TTTTTTTCTAGCTTCCGTGAAATCAACGTGCCCTGGTTCGTCTAGTTTTT; assay: SPR imaging; settings: 10 mM PBS; pH 7.4, 4% acetonitrile, room temperature; tested at 63 µg/mL
[2] = system: X-Aptamer 2 (DNA, aptamer, dU with phenol (tyrosine) at C5 (Y) at 18; dU with indole (tryptophan) at C5 (W) at 38) TTTTTTTCTAGCTTCGTTTGTCTCAACGTGCCCTGCGTCGTGATCTTTTT; assay: SPR imaging, kinetic 1:1 fit; settings: 10 mM PBS; pH 7.4, 4% acetonitrile, room temperature; 150 µM progesterone injected in screening
[3] = system: X-Aptamer 3 (DNA, aptamer, dU with phenol (tyrosine) at C5 (Y) at 18; dU with indole (tryptophan) at C5 (W) at 38) TTTTTTTCTAGAGATGTTTGTCTCAACGTGCCCTGCGTCGTGATCTTTTT; assay: SPR imaging, kinetic 1:1 fit; settings: 10 mM PBS; pH 7.4, 4% acetonitrile, room temperature; 150 µM progesterone injected in screening
[4] = system: X-Aptamer 5 (DNA, aptamer, dU with phenol (tyrosine) at C5 (Y) at 23; dU with indole (tryptophan) at C5 (W) at 37 and 38) TTTTTTTCTAGCTTCCGTGAAATCAACGTGCCCTGGTTCGTCTAGTTTTT; assay: SPR imaging, kinetic 1:1 fit; settings: 10 mM PBS; pH 7.4, 4% acetonitrile, room temperature; 150 µM progesterone injected in screening
[5] = system: X-Aptamer 6 (DNA, aptamer, dU with phenol (tyrosine) at C5 (Y) at 23; dU with indole (tryptophan) at C5 (W) at 37) TTTTTTTCTAGCTTCCGTGAAATCAACGTGCCCTGGTTAGTCTAGTTTTT; assay: SPR imaging, kinetic 1:1 fit; settings: 10 mM PBS; pH 7.4, 4% acetonitrile, room temperature; 150 µM progesterone injected in screening
[6] = system: X-Aptamer 7 (DNA, aptamer, dU with phenol (tyrosine) at C5 (Y) at 23; dU with indole (tryptophan) at C5 (W) at 36 and 37) TTTTTTTCTAGCTTCCGTGAAATCAACGTGACCTGTTTAGTGATCTTTTT; assay: SPR imaging, kinetic 1:1 fit; settings: 10 mM PBS; pH 7.4, 4% acetonitrile, room temperature; 150 µM progesterone injected in screening
[7] = system: X-Aptamer 8 (DNA, aptamer, dU with phenol (tyrosine) at C5 (Y) at 23; dU with indole (tryptophan) at C5 (W) at 37, 39 and 41) TTTTTTTCTAGCTTCCGTGAAATCAACGTGCCCTGGTATCTGATCTTTTT; assay: SPR imaging, kinetic 1:1 fit; settings: 10 mM PBS; pH 7.4, 4% acetonitrile, room temperature; 150 µM progesterone injected in screening
[8] = system: X-Aptamer 9 (DNA, aptamer, dU with phenol (tyrosine) at C5 (Y) at 23; dU with indole (tryptophan) at C5 (W) at 36, 37 and 39) TTTTTTTCTAGCTTCCGTGAAATCAACGTGCCCTGTTATCGCTAGTTTTT; assay: SPR imaging, kinetic 1:1 fit; settings: 10 mM PBS; pH 7.4, 4% acetonitrile, room temperature; 150 µM progesterone injected in screening

SMILES | binding [1] | KD [2] | KD [3] | KD [4] | KD [5] | KD [6] | KD [7] | KD [8]
C[C@]12CC[C@@H]3c4ccc(O)cc4CC[C@H]3[C@@H]1CC[C@@H]2O | no |  |  |  |  |  |  | 
CC(=O)[C@H]1CC[C@H]2[C@@H]3CCC4=CC(=O)CC[C@]4(C)[C@H]3CC[C@]12C |  | 0.04951 ± 9.9e-05 nM | 0.02174 ± 8.7e-05 nM | 0.02558 nM | 0.05303 ± 6.1e-05 nM | 0.14037 ± 6.4e-05 nM | 0.04079 ± 7.6e-05 nM | 0.06186 ± 7.6e-05 nM

Reference: PMC4877642 (2016)
